Results: patent publication US5981525A, “Indole derivatives useful in the treatment of osteoporosis” (SmithKline Beecham Corporation, priority 1995, dated 1999)
Counter-ions that a name gives are not always drawn.

Tested on: osteoclast proton pump
Assay: not given
Conditions: ruffled membrane vesicles from avian osteoclasts; cited from earlier work

SMILES	inhibition of proton transport
CCN1C(=O)C=CC1=O [N-ethylmaleimide]	inhibited
Cc1nc2c(OCc3ccccc3)cccn2c1CC#N [SCH 28080]	not inhibited
CO/C1=C\C(C)=C\[C@@H](C)[C@@H](O)[C@@H](C)C/C(C)=C/C=C/[C@H](OC)[C@@H]([C@@H](C)[C@@H](O)[C@H](C)[C@@]2(O)C[C@@H](O)[C@H](C)[C@@H](C(C)C)O2)OC1=O [bafilomycin A1]	inhibited
COc1ccc2[nH]c([S+]([O-])Cc3ncc(C)c(OC)c3C)nc2c1 (stereo not shown) [omeprazole]	not inhibited
C[C@@H]1O[C@@H](O[C@H]2C[C@@H](O)[C@]3(CO)[C@H]4[C@H](O)C[C@]5(C)[C@@H](C6=CC(=O)OC6)CC[C@]5(O)[C@@H]4CC[C@]3(O)C2)[C@H](O)[C@H](O)[C@H]1O [ouabain]	not inhibited
[Na+].[Na+].[Na+].[O]=[V]([O-])([O-])[O-] [sodium orthovanadate]	not inhibited

Target: bafilomycin-sensitive ATPase
Assay: Inhibition of bafilomycin-sensitive ATPase in chicken osteoclasts (ATPase assay, Pi release)
Assay type: biochemical
Conditions: chicken osteoclast membranes
Protocol: Vesicles were prepared from medullar bone obtained from tibiae and femurs of egg-laying hens which were calcium-starved for at least 15 days. Briefly, bone fragments were scraped with a 24 scalpel blade, suspended in 40 ml of isolation medium (0.2 M sucrose, 50 mM KCl, 10 mM Hepes, 1 mM EGTA, 2 mM dithiotheitrol, pH 7.4) and filtered through a 100 μm pore size nylon mesh. The whole procedure was performed at 4° C. After homogenisation in a potter (20 strokes) in 40 ml of isolation medium an initial centrifugation (6,500×gmax 20 min) was performed to remove mitochondria and lysosomes. The supematant was centrifuged at 100,000×gmax for 1 hr and the pellet was collected in 1 ml of isolation medium, divided into 200 μl aliquots, immediately frozen in liquid nitrogen and stored at -80° C. The protein content was determined using a Biorad colourimetric kit according to Bradford [M. Bradford, Anal. Biochem., 72, 248 (1976)]. For the proton transport assay, 5-10 μl of membranes were used.
Purification of osteoclast membranes. 1 ml of crude microsomal vesicles prepared above were applied (about 0.2 ml per tube ) on the top of a sucrose step-gradient consisting of 3.5 ml of 15%, 30% and 45% (w/w) sucrose in isolation medium and centrifuged at 280,000 gmax for 2 hours (SW 41 Ti rotor). After centrifugation the 30-45% sucrose interfaces were collected, diluted approx. 20-fold in isolation medium and pelletted at 100,000 gmax for 1 hour (SW 28 rotor). The pellet was then resuspended in 1 ml of isolation medium, aliquoted and frozen in liquid N2 and stored at -80° C. until used.
Inhibition of bafilomycin-sensitive ATPase activity was assessed in purified membrane vesicles by measuring the release of inorganic phosphate (Pi) during 30 min of incubation at 37° C. in a 96-well plate either in the presence or in the absence of bafilomycin Al. The reaction medium contained 1 mM ATP, 10 mM HEPES-Tris pH 8,50 mM KCl, 5 uM valinomycin, 5 uM nigericin, 1 mM CDTA-Tris, 100 uM ammonium molybdate, 0.2 M sucrose and membranes (20 ug protein/ml). The reaction was initiated by MgSO4 (8-arm pipette) and stopped, after 30 min, by addition of 4 volumes of the malachite green reagent (96-arm pipette) prepared according to Chan [Anal. Biochem. 157, 375 (1986)]. Absorbance at 650 nm was measured after 2 min using a microplate reader. Results are expressed as μmol (Pi)×mg protein^-1 ×hour^-1 and, for each experiment, represent the mean±sem of triplicates.

SMILES	IC50
COC(=O)/C(=C/C=C/c1cc2cc(Cl)ccc2[nH]1)OC [Example 4, Methyl (2Z,4E)-5-(5-chloro-2-indolyl)-2-methoxy-2,4-pentadienoate]	7 µM
COC(=O)/C(=C/C=C/c1cc2cc(Cl)c(Cl)cc2[nH]1)OC [Example 6, Methyl (2Z,4E)-5-(5,6-dichloro-2-indolyl)-2-methoxy-2,4-pentadienoate]	1.1 µM
CO/C(=C\C=C\c1cc2cc(Cl)ccc2[nH]1)C(=O)NCc1cccnc1 [Example 15, (2Z,4E)-5-(5-Chloro-2-indolyl)-2-methoxy-N-(3-pyridylmethyl)-2,4-pentadienamide]	22 µM
CO/C(=C\C=C\c1cc2cc(Cl)ccc2[nH]1)C(=O)N(Cc1ccccc1)CC(O)CO (stereo not shown) [Example 20, (2Z,4E)-5-(5-Chloro-2-indolyl)-N-2,3-dihydroxypropyl-2-methoxy-N-phenylmethyl-2,4-pentadienamide]	15 µM
CCN(CC)CCCNC(=O)/C(=C/C=C/c1cc2cc(Cl)ccc2[nH]1)OC [Example 26, (2Z,4E)-5-(5-Chloro-2-indolyl)-N-[3-(diethylamino)-propyl]-2-methoxy-2,4-pentadienamide]	3 µM
CCOC(=O)/C(=C/C=C/c1cc2cc(Cl)ccc2[nH]1)OCC [Example 30, Ethyl(2Z,4E)-5-(5-chloro-2-indolyl)-2-ethoxy-2,4-pentadienoate]	30 µM
CO/C(=C\C=C\c1cc2cc(Cl)ccc2[nH]1)C(=O)Nc1cccnc1 [Example 33]	4 µM
CCN(CC)CCCNC(=O)/C(=C/C=C/c1cc2cc(Cl)c(Cl)cc2[nH]1)OC [Example 34, (2Z,4E)-5-(5,6-Dichloro-2-indolyl)-N-[3-(diethylamino)-propyl]-2-methoxy-2,4-pentadienamide]	0.17 µM
CO/C(=C\C=C\c1cc2cc(Cl)ccc2[nH]1)C(=O)NCc1ccc(N)cc1 [Example 37]	30 µM
CO/C(=C\C=C\c1cc2cc(Cl)c(Cl)cc2[nH]1)C(=O)Nc1cccnc1 [Example 44, (2Z,4E)-5-(5,6-Dichloro-2-indolyl)-2-methoxy-N-(3-pyridyl)-2,4-pentadienamide]	0.62 µM
CO/C(=C\C=C\c1cc2cc(Cl)c(Cl)cc2[nH]1)C(=O)NCCCN(CC(=O)O)CC(=O)O [Example 45, hydrochloride]	14 µM
CCN(CC)CCNC(=O)/C(=C/C=C/c1cc2cc(Cl)c(Cl)cc2[nH]1)OC [Example 46, (2Z,4E)-5-(5,6-Dichloro-2-indolyl)-N-[2-(diethylamino)-ethyl]-2-methoxy-2,4-pentadienamide]	0.59 µM
CO/C(=C\C=C\c1cc2cc(Cl)c(Cl)cc2[nH]1)C(=O)NCCCn1ccnc1 [Example 49, (2Z,4E)-5-(5,6-Dichloro-2-indolyl)-N-[3-(1H-imidazol-1-yl)-propyl]-2-methoxy-2,4-pentadienamide]	4 µM
CO/C(=C\C=C\c1cc2cc(Cl)c(Cl)cc2[nH]1)C(=O)N[C@@H]1CN2CCC1CC2 [Example 50, (2Z,4E)-N-[(S)-1-Azabicyclo[2.2.2]octan-3-yl]-5-(5,6-dichloro-2-indolyl)-2-methoxy-2,4-pentadienamide]	0.62 µM
CO/C(=C\C=C\c1cc2cc(Cl)c(Cl)cc2[nH]1)C(=O)NCCCN1CCOCC1 [Example 51, (2Z,4E)-5-(5,6-Dichloro-2-indolyl)-N-[3-(morpholino)propyl]-2-methoxy-2,4-pentadienamide]	1.1 µM
CO/C(=C\C=C\c1cc2cc(Cl)c(Cl)cc2[nH]1)C(=O)NCCN1CCCCC1 [Example 53, (2Z,4E)-5-(5,6-Dichloro-2-indolyl)-N-[2-(1-piperidinyl)-ethyl]-2-methoxy-2,4-pentadienamide]	1.2 µM
CO/C(=C\C=C\c1cc2cc(Cl)c(Cl)cc2[nH]1)C(=O)NCCC1CCCN1C (stereo not shown) [Example 54, (2Z,4E)-5-(5,6-Dichloro-2-indolyl)-2-methoxy-N-[2-[2-(1-methyl)pyrrolidinyl]ethyl]-2,4-pentadienamide]	0.34 µM
CO/C(=C\C=C\c1cc2cc(Cl)c(Cl)cc2[nH]1)C(=O)NC1CC(C)(C)NC(C)(C)C1 [Example 56, (2Z,4E)-5-(5,6-Dichloro-2-indolyl)-2-methoxy-N-[4-(2,2,6,6-tetramethyl)piperidinyl]-2,4-pentadienamide]	0.07 µM
CO/C(=C\C=C\c1cc2cc(Cl)c(Cl)cc2[nH]1)C(=O)Nc1ccc(OC)nc1 [Example 57, (2Z,E)-5-(5,6-Dichloro-2-indolyl)-2-methoxy-N-[5-(2-methoxy)pyridyl]-2,4-pentadienamide]	1.6 µM
CO/C(=C\C=C\c1cc2cc(Cl)c(Cl)cc2[nH]1)C(=O)NCCCN1CCCCC1C (stereo not shown) [Example 59, (2Z,4E)-5-(5,6-Dichloro-2-indolyl)-2-methoxy-N[3-[1-(2-methyl)piperidin-yl]-propyl]-2,4-pentadienamide]	0.13 µM
CO/C(=C\C=C\c1cc2cc(Cl)c(Cl)cc2[nH]1)C(=O)NN1CCN(C)CC1 [Example 60, (2Z,4E)-5-(5,6-Dichloro-2-indolyl)-2-methoxy-N-[1-(4-methylpiperazinyl)]-2,4-pentadienamide]	0.85 µM
CCN(CCCNC(=O)/C(=C/C=C/c1cc2cc(Cl)c(Cl)cc2[nH]1)OC)Cc1ccccc1 [Example 62]	1.4 µM
CO/C(=C\C=C\c1cc2cc(Cl)c(Cl)cc2[nH]1)C(=O)Nc1ncccn1 [Example 65, (2Z,4E)-5-(5,6-Dichloro-2-indolyl)-2-methoxy-N-(2-pyrimidinyl)-2,4-pentadienamide]	17 µM
CO/C(=C\C=C\c1cc2cc(Cl)c(Cl)cc2[nH]1)C(=O)NC1CC2CCC(C1)N2C (stereo not drawn) [Example 66, (2Z,4E)-6-(5,6-dichloro-2-indolyl)-N-[8-methyl-8-azabicyclo[3.2.1]oct-3β-yl]-2-methoxy-2,4-pentadienamide]	0.1 µM
CO/C(=C\C=C\c1cc2cc(Cl)c(Cl)cc2[nH]1)C(=O)NCCCN1CCN(C)CC1 [Example 67, (2Z,4E)-5-(5,6-Dichloro-2-indolyl)-2-methoxy-N-[3-[1-(4-methyl)piperazinyl]-propyl]-2,4-pentadienamide]	1.3 µM
CO/C(=C\C=C\c1cc2cc(Cl)c(Cl)cc2[nH]1)C(=O)NC1CCN(C)CC1 [Example 70, (2Z,4E)-5-(5,6-Dichloro-2-indolyl)-2-methoxy-N-[4-(1-methyl)-piperidinyl]-2,4-pentadienamide]	0.12 µM
CO/C(=C\C=C\c1cc2cc(Cl)c(Cl)cc2[nH]1)C(=O)Nc1ncnc2[nH]ncc12 [Example 71, (2Z,4E)-5-(5,6-Dichloro-2-indolyl)-2-methoxy-N-(1H-pyrazolo[3,4-d]pyrimidin-4-yl)-2,4-pentadienamide]	0.53 µM

Tested on: osteoclast cultures
Assay: not given
Conditions: cited from earlier work

SMILES	inhibition of bone resorption
CO/C1=C\C(C)=C\[C@@H](C)[C@@H](O)[C@@H](C)C/C(C)=C/C=C/[C@H](OC)[C@@H]([C@@H](C)[C@@H](O)[C@H](C)[C@@]2(O)C[C@@H](O)[C@H](C)[C@@H](C(C)C)O2)OC1=O [bafilomycin A1]	inhibit bone resorption
